Where a name gives a salt, the structure may show the parent alone.
Target: T1, human GnRH receptor (Homo sapiens, UniProt P30968)
T1 construct: expressed in transfected cells; host or cells: CHO (Chinese Hamster Ovary) cells
T1 sequence (P30968 1-328): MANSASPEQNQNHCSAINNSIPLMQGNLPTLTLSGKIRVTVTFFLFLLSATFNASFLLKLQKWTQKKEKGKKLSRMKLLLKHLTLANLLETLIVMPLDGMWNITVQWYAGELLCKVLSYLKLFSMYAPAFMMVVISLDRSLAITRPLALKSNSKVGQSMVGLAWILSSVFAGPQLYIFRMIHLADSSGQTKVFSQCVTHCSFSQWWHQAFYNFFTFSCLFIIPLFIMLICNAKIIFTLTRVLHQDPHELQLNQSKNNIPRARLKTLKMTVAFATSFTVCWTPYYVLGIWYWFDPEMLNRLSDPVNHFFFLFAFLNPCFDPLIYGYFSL
Assay: 125I-leuprorelin binding assay, human GnRH receptor CHO cell membrane fraction
Conditions: 10 nM of the testing compound, room temperature for 1 hour, read-out: Binding inhibitory ratio (%)
Method: (1) Production of ^125I-Leuprorelin
10 μL of a 3×10^−4 M aqueous solution of leuprorelin and 10 μL of 0.01 mg/mL lactoperoxidase were placed in a tube, and 10 μL (37 MBq) of a Na^125I solution was added thereto. After stirring, 10 μL of 0.001% H2O2 was added to allow the mixture to undergo a reaction at room temperature for 20 minutes. 700 μL of a 0.05% TFA solution was added to stop the reaction, and purification by reversed phase HPLC was carried out. The conditions for HPLC are described below. ^125I-leuprorelin was eluted at a retention time of 26 to 27 minutes.
(2) Production of CHO (Chinese Hamster Ovary) Cell Membrane Fraction Containing Human GnRH Receptor
Human GnRH receptor-expressing CHO cells were cultured until the cells were reached a 90% confluent state in a T-150 flask. The cells were separated using 0.02% EDTA-PBS and were centrifuged at 500×g for 5 minutes. A homogenate buffer for cells (10 mM NaHCO3, 1 mM EDTA, 1 mM PMSF, 0.5 μg/mL Pepstatin, 2 μg/mL Leupeptin, pH 7.4) was added to the cell pellet, and the mixture was homogenized with a Polytron homogenizer. After centrifugation of the homogenate at 4° C. and at 1000×g for 10 minutes, the supernatant was placed in an ultracentrifuge tube and was centrifuged at 4° C. and at 49,300×g for 1 hour to obtain a precipitate of a membrane fraction. This precipitate was suspended in an assay buffer (50 mM Tris-HCl, 150 mM NaCl, 5 mM EDTA, pH 7.4) and then dispensed and stored at −80° C., so that the suspension can be thawed every time it is taken for use.
(3) Measurement of the Binding Inhibitory Rate of 125I-Leuprorelin
A ^125I-leuprorelin binding assay was carried out using 200 μL of an assay buffer containing 10 μg of human GnRH receptor membrane fraction, […] of ^125I-leuprorelin and 10 nM of the testing compound.
The non-specific binding radioactivity was measured in the presence of 1 μM of non-labeled leuprorelin. After leaving the mixture to stand at room temperature for 1 hour, 125I-leuprorelin was captured on a GF/C filter (PerkinElmer, Inc.), and the filter was washed with ice-cold 50 mM Tris-HCl (pH 7.4) using a cell harvester. After drying the filter, a liquid scintillation cocktail for microplate was added, and the membrane-bound radioactivity was measured using a TopCount.
The value of (TB-SB)/(TB-NSB)×100 (SB: radioactivity upon addition of the compound, TB: maximum binding radioactivity, NSB: non-specific binding radioactivity) was calculated to determine the binding inhibitory rate in the presence of 10 nM of each testing material.

| Structure (SMILES) | inhibition at 0.01 µM [%] |
| --- | --- |
| CN(C(=O)c1cc(-n2c(=O)[nH]c3cccc(CO)c3c2=O)c(Cl)s1)C1CCCCC1 [Example 73, 5-Chloro-N-cyclohexyl-4-[5-(hydroxymethyl)-2,4-dioxo-1,4-dihydroquinazolin-3(2H)-yl]-N-methylthiophene-2-carboxamide] | 79 |
| CC(C)CN(C)C(=O)c1cc(-n2c(=O)[nH]c3cccc(CO)c3c2=O)c(Cl)s1 [Example 89, 5-Chloro-4-[5-(hydroxymethyl)-2,4-dioxo-1,4-dihydroquinazolin-3(2H)-yl]-N-isobutyl-N-methylthiophene-2-carboxamide] | 76.2 |
| CN(C(=O)c1cc(-n2c(=O)[nH]c3cccc(CO)c3c2=O)c(Cl)s1)c1ccccc1 [Example 21(12), 5-Chloro-4-[5-(hydroxymethyl)-2,4-dioxo-1,4-dihydroquinazolin-3(2H)-yl]-N-methyl-N-phenylthiophene-2-carboxamide] | 84.2 |
| O=c1[nH]c2ccccc2c(=O)n1-c1cc(S(=O)(=O)N2CCCOc3ccccc32)ccc1Cl [Example 7(8), 3-(2-Chloro-5-(3,4-dihydro-1,5-benzoxazepin-5(2H)-ylsulfonyl)phenyl)-2,4(1H,3H)-quinazolinedione] | 87.6 |
| O=c1[nH]c2cccc(CO)c2c(=O)n1-c1cc(S(=O)(=O)N2CCCc3ccccc32)ccc1Cl [Example 36, 3-[2-Chloro-5-(3,4-dihydroquinolin-1(2H)-ylsulfonyl)phenyl]-5-(hydroxymethyl)quinazoline-2,4(1H,3H)-dione] | 96.7 |
| N#Cc1sc(S(=O)(=O)N2CCCCc3ccccc32)cc1-n1c(=O)[nH]c2ccccc2c1=O [Example 42, 3-(2,4-Dioxo-1,4-dihydroquinazolin-3(2H)-yl)-5-(2,3,4,5-tetrahydro-1H-1-benzazepin-1-ylsulfonyl)thiophene-2-carbonitrile] | 77.4 |
| Cc1cccc(N(C)C(=O)c2cc(-n3c(=O)[nH]c4cccc(CO)c4c3=O)c(Cl)s2)c1 [Example 73(5), 5-Chloro-4-[5-(hydroxymethyl)-2,4-dioxo-1,4-dihydroquinazolin-3(2H)-yl]-N-methyl-N-(3-methylphenyl)thiophene-2-carboxamide] | 95.6 |
| CN(C(=O)c1cc(-n2c(=O)[nH]c3cccc(CO)c3c2=O)c(Cl)s1)c1ccccc1Cl [Example 73(1), 5-Chloro-N-(2-chlorophenyl)-4-[5-(hydroxymethyl)-2,4-dioxo-1,4-dihydroquinazolin-3(2H)-yl]-N-methylthiophene-2-carboxamide] | 91.5 |
| CN(C(=O)c1ccc(Cl)c(-n2c(=O)[nH]c3cccc(CO)c3c2=O)c1)c1ccccn1 [Example 46(1), 4-Chloro-3-[5-(hydroxymethyl)-2,4-dioxo-1,4-dihydroquinazolin-3(2H)-yl]-N-methyl-N-pyridin-2-ylbenzamide] | 98.2 |
| CN(C(=O)c1cc(-n2c(=O)[nH]c3cccc(CO)c3c2=O)c(Cl)s1)c1cccc(Cl)c1 [Example 73(2), 5-Chloro-N-(3-chlorophenyl)-4-[5-(hydroxymethyl)-2,4-dioxo-1,4-dihydroquinazolin-3(2H)-yl]-N-methylthiophene-2-carboxamide] | 93.8 |
| O=c1[nH]c2ccccc2c(=O)n1-c1cc(S(=O)(=O)N2CCCc3ccccc32)ccc1F [Example 7(22), 3-[5-(3,4-Dihydroquinolin-1(2H)-ylsulfonyl)-2-fluorophenyl]quinazoline-2,4(1H,3H)-dione] | 75.5 |
| CN(C(=O)c1ccc(Cl)c(-n2c(=O)[nH]c3ccccc3c2=O)c1)c1ccccc1 [Example 14, 4-Chloro-3-(2,4-dioxo-1,4-dihydroquinazolin-3(2H)-yl)-N-methyl-N-phenylbenzamide] | 88.9 |
| O=c1[nH]c2ccccc2c(=O)n1-c1cc(S(=O)(=O)N2CCCCc3ccccc32)ccc1Cl [Example 7(5), 3-(2-Chloro-5-(2,3,4,5-tetrahydro-1H-1-benzazepin-1-ylsulfonyl)phenyl)-2,4(1H,3H)-quinazolinedione] | 95.6 |
| CC(C)(O)c1cccc2[nH]c(=O)n(-c3cc(S(=O)(=O)N4CCCc5ccccc54)ccc3Cl)c(=O)c12 [Example 100(1), 3-[2-Chloro-5-(3,4-dihydroquinolin-1(2H)-ylsulfonyl)phenyl]-5-(1-hydroxy-1-methylethyl)quinazoline-2,4(1H,3H)-dione] | 99.9 |
| O=c1[nH]c2cccc(CO)c2c(=O)n1-c1cc(S(=O)(=O)N2CCCCc3ccccc32)sc1Cl [Example 47, 3-[2-Chloro-5-(2,3,4,5-tetrahydro-1H-1-benzazepin-1-ylsulfonyl)-3-thienyl]-5-(hydroxymethyl)quinazoline-2,4(1H,3H)-dione] | 94.8 |
| N=c1c2ccccc2[nH]c(=O)n1-c1cc(S(=O)(=O)N2CCCc3ccccc32)ccc1Cl [Example 8(1), 3-(2-Chloro-5-(3,4-dihydro-1(2H)-quinolinylsulfonyl)phenyl)-4-imino-3,4-dihydro-2(1H)-quinazoline trifluoroacetate] | 91.7 |
| NC(=O)c1cccc2[nH]c(=O)n(-c3cc(S(=O)(=O)N4CCCc5ccccc54)ccc3Cl)c(=O)c12 [Example 85, 3-[2-Chloro-5-(3,4-dihydroquinolin-1(2H)-ylsulfonyl)phenyl]-2,4-dioxo-1,2,3,4-tetrahydroquinazoline-5-carboxamide] | 94 |
| CN(c1ccccc1)S(=O)(=O)c1ccc(Cl)c(-n2c(=O)[nH]c3ccccc3c2=N)c1 [Example 8, 4-Chloro-3-(4-imino-2-oxo-1,4-dihydro-3(2H)-quinazolinyl)-N-methyl-N-phenylbenzenesulfonamide trifluoroacetate] | 84.7 |
| COC(=O)c1cccc2[nH]c(=O)n(-c3cc(S(=O)(=O)N4CCCc5ccccc54)ccc3Cl)c(=O)c12 [Example 30, Methyl 3-[2-chloro-5-(3,4-dihydroquinolin-1(2H)-ylsulfonyl)phenyl]-2,4-dioxo-1,2,3,4-tetrahydroquinazoline-5-carboxylate] | 98 |
| O=c1[nH]c2ccccc2c(=O)n1-c1cc(S(=O)(=O)N2CCCc3ccccc32)ccc1Cl [Example 6(4), 3-(2-Chloro-5-(3,4-dihydroquinolin-1(2H)-ylsulfonyl)phenyl)quinazoline-2,4(1H,3H)-dione] | 88.5 |
| O=C(O)c1cccc2[nH]c(=O)n(-c3cc(S(=O)(=O)N4CCCc5ccccc54)ccc3Cl)c(=O)c12 [Example 31, 3-[2-Chloro-5-(3,4-dihydroquinolin-1(2H)-ylsulfonyl)phenyl]-2,4-dioxo-1,2,3,4-tetrahydroquinazoline-5-carboxylic acid] | 98.2 |
| O=c1[nH]c2ccccc2c(=O)n1-c1cc(S(=O)(=O)N2CCCCc3sccc32)ccc1Cl [Example 7(70), 3-[2-Chloro-5-(5,6,7,8-tetrahydro-4H-thieno[3,2-b]azepin-4-ylsulfonyl)phenyl]quinazoline-2,4(1H,3H)-dione] | 94.5 |
| Cc1ccccc1N(C)C(=O)c1cc(-n2c(=O)[nH]c3cccc(CO)c3c2=O)c(Cl)s1 [Example 73(4), 5-Chloro-4-[5-(hydroxymethyl)-2,4-dioxo-1,4-dihydroquinazolin-3(2H)-yl]-N-methyl-N-(2-methylphenyl)thiophene-2-carboxamide] | 82.2 |

From patent publication US20070010537A1, “Fused pyramidine derivative and use thereof” (priority 2004, published 2007)
